Laboratory results from ChEMBL document CHEMBL1134011, “LY294002-geldanamycin heterodimers as selective inhibitors of the PI3K and PI3K-related family” (Bioorg Med Chem Lett, 2001).

Experiments:
[1] = Inhibition of Phoshoinositol 3 kinase from MCF-7 breast cancer cells; type: cell-based, Homo sapiens; conditions: mcf7
[2] = target: T1, DNA-dependent protein kinase catalytic subunit (Homo sapiens, UniProt P78527); assay: Inhibition of DNA dependent protein kinase activity without hsp90 alpha protein
[3] = target: Heat shock protein HSP 90-alpha (Homo sapiens, UniProt P07900); assay: Competitive binding towards Heat shock protein HSP 90-alpha
[4] = target: T1, DNA-dependent protein kinase catalytic subunit; assay: Inhibition of DNA dependent protein kinase with hsp90 alpha protein
[5] = Inhibition of Phoshoinositol 3 kinase; set-up: species or system Homo sapiens

T1 sequence (P78527 whole entry): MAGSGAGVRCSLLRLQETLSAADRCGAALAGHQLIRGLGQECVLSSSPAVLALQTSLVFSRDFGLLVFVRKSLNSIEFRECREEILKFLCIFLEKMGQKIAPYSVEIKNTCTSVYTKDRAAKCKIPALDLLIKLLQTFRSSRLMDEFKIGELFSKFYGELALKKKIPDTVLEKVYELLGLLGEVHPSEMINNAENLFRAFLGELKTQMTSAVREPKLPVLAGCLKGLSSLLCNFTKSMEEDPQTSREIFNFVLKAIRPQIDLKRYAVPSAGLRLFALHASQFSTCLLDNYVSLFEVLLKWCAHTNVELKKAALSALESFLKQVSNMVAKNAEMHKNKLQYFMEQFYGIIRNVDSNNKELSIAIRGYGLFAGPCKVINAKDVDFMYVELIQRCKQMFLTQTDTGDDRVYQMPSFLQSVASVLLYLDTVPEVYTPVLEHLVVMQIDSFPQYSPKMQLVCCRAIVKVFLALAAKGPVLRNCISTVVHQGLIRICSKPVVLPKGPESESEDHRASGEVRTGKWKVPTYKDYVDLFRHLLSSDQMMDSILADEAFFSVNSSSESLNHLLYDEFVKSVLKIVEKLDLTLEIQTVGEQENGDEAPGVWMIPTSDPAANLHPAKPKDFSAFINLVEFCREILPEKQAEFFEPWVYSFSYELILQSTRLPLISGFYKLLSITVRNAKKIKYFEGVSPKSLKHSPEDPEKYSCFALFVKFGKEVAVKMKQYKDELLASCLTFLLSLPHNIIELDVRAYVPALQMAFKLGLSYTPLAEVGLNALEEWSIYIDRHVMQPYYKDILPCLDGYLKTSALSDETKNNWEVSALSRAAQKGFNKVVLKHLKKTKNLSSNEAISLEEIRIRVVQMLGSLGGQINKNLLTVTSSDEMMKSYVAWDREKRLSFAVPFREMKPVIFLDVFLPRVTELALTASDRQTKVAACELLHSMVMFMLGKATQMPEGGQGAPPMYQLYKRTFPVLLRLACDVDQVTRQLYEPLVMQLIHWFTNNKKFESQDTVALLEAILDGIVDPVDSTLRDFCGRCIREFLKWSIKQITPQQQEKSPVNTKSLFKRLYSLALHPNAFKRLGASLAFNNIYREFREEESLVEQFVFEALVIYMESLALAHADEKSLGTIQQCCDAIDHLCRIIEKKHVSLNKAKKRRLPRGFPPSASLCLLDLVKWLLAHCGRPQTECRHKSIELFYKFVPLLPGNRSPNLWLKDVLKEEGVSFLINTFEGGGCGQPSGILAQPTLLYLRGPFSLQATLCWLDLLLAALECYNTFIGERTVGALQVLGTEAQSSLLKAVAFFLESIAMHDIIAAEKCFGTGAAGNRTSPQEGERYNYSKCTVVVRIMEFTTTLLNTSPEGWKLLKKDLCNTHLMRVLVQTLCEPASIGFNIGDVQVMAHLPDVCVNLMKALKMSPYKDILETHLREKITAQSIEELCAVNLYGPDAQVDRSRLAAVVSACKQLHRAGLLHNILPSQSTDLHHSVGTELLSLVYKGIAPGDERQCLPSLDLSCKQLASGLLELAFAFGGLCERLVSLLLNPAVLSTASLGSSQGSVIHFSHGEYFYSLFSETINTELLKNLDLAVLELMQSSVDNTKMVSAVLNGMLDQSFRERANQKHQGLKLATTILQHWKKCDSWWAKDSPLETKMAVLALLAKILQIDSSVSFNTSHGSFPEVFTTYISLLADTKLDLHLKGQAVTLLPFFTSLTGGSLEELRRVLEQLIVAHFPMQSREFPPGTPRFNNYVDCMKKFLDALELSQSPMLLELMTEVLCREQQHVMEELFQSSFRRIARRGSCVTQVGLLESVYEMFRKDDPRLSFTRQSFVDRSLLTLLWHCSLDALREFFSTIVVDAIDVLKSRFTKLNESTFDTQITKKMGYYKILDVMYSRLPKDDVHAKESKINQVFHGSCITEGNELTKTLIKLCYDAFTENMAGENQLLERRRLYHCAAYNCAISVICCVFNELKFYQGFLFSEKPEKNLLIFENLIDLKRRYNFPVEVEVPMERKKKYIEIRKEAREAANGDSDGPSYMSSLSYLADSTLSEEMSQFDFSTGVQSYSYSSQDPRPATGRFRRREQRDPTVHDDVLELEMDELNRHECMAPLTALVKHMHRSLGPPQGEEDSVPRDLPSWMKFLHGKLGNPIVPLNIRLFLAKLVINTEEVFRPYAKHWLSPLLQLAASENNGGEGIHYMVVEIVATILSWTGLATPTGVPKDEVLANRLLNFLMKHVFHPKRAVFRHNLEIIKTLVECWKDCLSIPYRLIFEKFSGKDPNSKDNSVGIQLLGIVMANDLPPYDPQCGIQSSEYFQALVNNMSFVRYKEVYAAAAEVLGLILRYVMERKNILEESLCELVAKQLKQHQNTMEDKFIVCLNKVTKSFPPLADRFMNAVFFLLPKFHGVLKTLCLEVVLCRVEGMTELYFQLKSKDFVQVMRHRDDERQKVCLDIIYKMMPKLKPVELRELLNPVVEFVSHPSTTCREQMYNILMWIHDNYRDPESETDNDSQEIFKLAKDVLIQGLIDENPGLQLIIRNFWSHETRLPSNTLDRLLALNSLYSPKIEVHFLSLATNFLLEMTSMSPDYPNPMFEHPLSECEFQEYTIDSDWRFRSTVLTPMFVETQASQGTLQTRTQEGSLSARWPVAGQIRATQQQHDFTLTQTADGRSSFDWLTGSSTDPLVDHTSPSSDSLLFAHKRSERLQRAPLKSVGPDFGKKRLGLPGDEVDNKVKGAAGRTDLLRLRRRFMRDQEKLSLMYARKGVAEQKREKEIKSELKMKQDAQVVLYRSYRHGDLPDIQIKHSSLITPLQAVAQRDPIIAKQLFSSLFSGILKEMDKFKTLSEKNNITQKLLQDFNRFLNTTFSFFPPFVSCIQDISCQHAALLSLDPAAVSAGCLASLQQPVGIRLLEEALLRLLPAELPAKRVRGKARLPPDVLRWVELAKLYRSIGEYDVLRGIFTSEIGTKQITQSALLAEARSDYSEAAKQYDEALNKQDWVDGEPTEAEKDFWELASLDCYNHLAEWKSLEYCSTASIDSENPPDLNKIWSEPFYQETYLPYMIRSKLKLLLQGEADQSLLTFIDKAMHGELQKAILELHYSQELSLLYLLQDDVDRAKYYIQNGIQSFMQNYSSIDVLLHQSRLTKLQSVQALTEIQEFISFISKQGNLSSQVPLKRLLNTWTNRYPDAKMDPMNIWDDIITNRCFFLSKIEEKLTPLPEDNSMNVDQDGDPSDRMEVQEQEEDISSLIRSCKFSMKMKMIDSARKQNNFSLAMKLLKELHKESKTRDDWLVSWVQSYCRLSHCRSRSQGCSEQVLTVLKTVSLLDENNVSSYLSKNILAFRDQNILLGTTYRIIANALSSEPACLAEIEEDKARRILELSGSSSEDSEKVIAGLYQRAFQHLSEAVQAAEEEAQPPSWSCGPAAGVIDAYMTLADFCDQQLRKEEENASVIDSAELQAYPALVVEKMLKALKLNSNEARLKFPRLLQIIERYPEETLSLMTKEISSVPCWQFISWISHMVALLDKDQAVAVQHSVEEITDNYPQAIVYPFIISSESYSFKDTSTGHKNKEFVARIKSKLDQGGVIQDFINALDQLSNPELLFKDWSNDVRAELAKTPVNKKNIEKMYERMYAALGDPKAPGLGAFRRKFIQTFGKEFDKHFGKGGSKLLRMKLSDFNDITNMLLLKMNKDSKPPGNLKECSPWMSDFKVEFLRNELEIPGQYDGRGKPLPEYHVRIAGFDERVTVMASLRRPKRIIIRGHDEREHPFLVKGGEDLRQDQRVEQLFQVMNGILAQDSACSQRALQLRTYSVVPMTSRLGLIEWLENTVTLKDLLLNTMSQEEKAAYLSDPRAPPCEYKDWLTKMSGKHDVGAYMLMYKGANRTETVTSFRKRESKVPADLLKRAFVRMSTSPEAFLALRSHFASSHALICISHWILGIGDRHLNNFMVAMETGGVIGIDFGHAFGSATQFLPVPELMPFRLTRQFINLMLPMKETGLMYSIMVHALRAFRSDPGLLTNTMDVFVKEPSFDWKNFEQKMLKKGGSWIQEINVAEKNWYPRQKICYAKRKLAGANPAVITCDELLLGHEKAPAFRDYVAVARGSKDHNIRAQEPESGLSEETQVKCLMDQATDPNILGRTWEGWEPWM

Structure (SMILES) | IC50 [1] [µM] | IC50 [2] [µM] | EC50 [3] [µM] | IC50 [4] [µM] | IC50 [5] [µM]
C=CCNC1=C2C[C@@H](C)C[C@H](OC)[C@H](O)[C@@H](C)/C=C(\C)[C@H](OC(N)=O)[C@@H](OC)/C=C\C=C(/C)C(=O)NC(=CC1=O)C2=O [TANESPIMYCIN] | > 500 | > 40 | – | – | –
CO[C@H]1/C=C\C=C(/C)C(=O)NC2=CC(=O)C(NCCCCCCOc3ccc4c(=O)cc(N5CCOCC5)oc4c3)=C(C[C@@H](C)C[C@H](OC)[C@H](O)[C@@H](C)/C=C(\C)[C@@H]1OC(N)=O)C2=O | > 500 | 6.1 | 4 | – | –
CO[C@H]1/C=C\C=C(/C)C(=O)NC2=CC(=O)C(NCCCOc3ccc4c(=O)cc(N5CCOCC5)oc4c3)=C(C[C@@H](C)C[C@H](OC)[C@H](O)[C@@H](C)/C=C(\C)[C@@H]1OC(N)=O)C2=O | > 500 | 28 | 26 | – | –
CO[C@H]1/C=C\C=C(/C)C(=O)NC2=CC(=O)C(NCCCCOc3ccc4c(=O)cc(N5CCOCC5)oc4c3)=C(C[C@@H](C)C[C@H](OC)[C@H](O)[C@@H](C)/C=C(\C)[C@@H]1OC(N)=O)C2=O | 200 | 13.9 | 10 | – | –
CO[C@H]1/C=C\C=C(/C)C(=O)NC2=CC(=O)C(NCCCCCOc3ccc4c(=O)cc(N5CCOCC5)oc4c3)=C(C[C@@H](C)C[C@H](OC)[C@H](O)[C@@H](C)/C=C(\C)[C@@H]1OC(N)=O)C2=O | 310 | 10 | 2.5 | 5 | –
O=c1cc(N2CCOCC2)oc2c1ccc1ccccc12 | – | – | – | – | 6

More lines, now with the values ahead:

IC50 [1] [µM] | IC50 [2] [µM] | EC50 [3] [µM] | IC50 [4] [µM] | IC50 [5] [µM] | Structure (SMILES)
3 | 3 | 7 | – | – | CO[C@H]1/C=C\C=C(/C)C(=O)NC2=CC(=O)C(NCC#Cc3cccc4c(=O)cc(N5CCOCC5)oc34)=C(C[C@@H](C)C[C@H](OC)[C@H](O)[C@@H](C)/C=C(\C)[C@@H]1OC(N)=O)C2=O
13.5 | 13.4 | > 50 | – | – | CO[C@H]1/C=C\C=C(/C)C(=O)NC2=CC(=O)C(NCCCC#Cc3cccc4c(=O)cc(N5CCOCC5)oc34)=C(C[C@@H](C)C[C@H](OC)[C@H](O)[C@@H](C)/C=C(\C)[C@@H]1OC(N)=O)C2=O
5 | 3.7 | 46 | – | – | CO[C@H]1/C=C\C=C(/C)C(=O)NC2=CC(=O)C(NCCCCCCCOc3ccc4c(=O)cc(N5CCOCC5)oc4c3C)=C(C[C@@H](C)C[C@H](OC)[C@H](O)[C@@H](C)/C=C(\C)[C@@H]1OC(N)=O)C2=O
28 | 1.75 | 28 | – | – | CO[C@H]1/C=C\C=C(/C)C(=O)NC2=CC(=O)C(NCCCCCCCCOc3ccc4c(=O)cc(N5CCOCC5)oc4c3C)=C(C[C@@H](C)C[C@H](OC)[C@H](O)[C@@H](C)/C=C(\C)[C@@H]1OC(N)=O)C2=O
14 | 4.3 | > 50 | – | – | O=c1cc(N2CCOCC2)oc2ccccc12
85 | 33 | 16 | – | – | CO[C@H]1/C=C\C=C(/C)C(=O)NC2=CC(=O)C(NCCOCCOc3ccc4c(=O)cc(N5CCOCC5)oc4c3)=C(C[C@@H](C)C[C@H](OC)[C@H](O)[C@@H](C)/C=C(\C)[C@@H]1OC(N)=O)C2=O
70 | 12.2 | > 50 | – | – | CO[C@H]1/C=C\C=C(/C)C(=O)NC2=CC(=O)C(NCCOCCOc3ccc4c(=O)cc(N5CCOCC5)oc4c3C)=C(C[C@@H](C)C[C@H](OC)[C@H](O)[C@@H](C)/C=C(\C)[C@@H]1OC(N)=O)C2=O
